Data published in paper PMC5584254, “Identification of novel small molecule Beclin 1 mimetics activating autophagy” (Oncotarget, 2017).
Where a name gives a salt, the structure may show the parent alone. Read-outs that look alike come from different tables or passages of the source.

What was measured:
[1] = target: T1, Bcl-xL-Beclin 1 complex (Homo sapiens, UniProt Q07817); assay: Concentration response FP reconfirmation of HTS hits; type: binding; details: for inhibition at 5 µM: read-out: Dose-response (% Inhibition) 5 μM; for inhibition at 10 µM: read-out: Dose-response (% Inhibition) 10 μM; for inhibition at 20 µM: read-out: Dose-response (% Inhibition) 20 μM; for inhibition at 40 µM: read-out: Dose-response (% Inhibition) 40 μM; for inhibition at 80 µM: read-out: Dose-response (% Inhibition) 80 μM; for inhibition at 160 µM: read-out: Dose-response (% Inhibition) 160 μM
T1 construct: made in house
Protocol: (§1) Then the plates were read by Envision (Perkin Elmer, Waltham, MA). […] The hits were selected from library stocks and reconfirmed in a concentration response FP assay (6 doses ranging from 5 μM to 160 μM or 8 doses ranging from 0.5 μM to 60 μM).

[2] = target: T1, Bcl-xL-Beclin 1 complex; assay: FP-based high-throughput screening, primary screen; type: binding; details: first screen; 40 μM compound, 2.5 μM Bcl-xL, 400 nM 20-mer
Description: Next, we optimized the FP competitive binding assay in a 384-well microplate format and carried out a small-scale HTS using a small library, which contains 6580 compounds from Prestwick, Microsource and our in-house CMLD library. Then, the FP assay was optimized and applied in screening the larger Chembridge library consisting of 43736 compounds. HTS cascades are shown in Supplementary Figure 1A–1B. […] All chemical structures can be found on the PubChem website (http://pubchem.ncbi.nlm.nih.gov/).
as §1

T1 sequence (Q07817 whole entry, one chain of several): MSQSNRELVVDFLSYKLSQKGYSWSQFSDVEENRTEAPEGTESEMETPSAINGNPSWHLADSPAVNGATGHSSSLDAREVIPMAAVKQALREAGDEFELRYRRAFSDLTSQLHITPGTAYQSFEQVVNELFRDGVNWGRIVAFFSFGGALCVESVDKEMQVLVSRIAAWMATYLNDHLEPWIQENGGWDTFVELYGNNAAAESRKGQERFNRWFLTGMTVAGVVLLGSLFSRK

| Compound | inhibition at 5 µM ([1]; 5 μM, hits of first screen) | inhibition at 10 µM ([1]; 10 μM, hits of first screen) | inhibition at 20 µM ([1]; 20 μM, hits of first screen) | inhibition at 40 µM ([1]; 40 μM, hits of first screen) | inhibition at 80 µM ([1]; 80 μM, hits of first screen) | inhibition at 160 µM ([1]; 160 μM, hits of first screen) | Primary Screen mP [2] | inhibition at 40 µM [2] | inhibition at 5 µM [1] | inhibition at 10 µM [1] | inhibition at 20 µM [1] | inhibition at 40 µM [1] | inhibition at 80 µM [1] | inhibition at 160 µM [1] |
| --- | --- | --- | --- | --- | --- | --- | --- | --- | --- | --- | --- | --- | --- | --- |
| O=C1C=C2CC3(O)COc4cc(O)ccc4C3=C2C=C1O (stereo not drawn) [Compound A01, BRAZILEIN] | 8% | 16.9% | 23% | 35.7% | 57.8% | 74.8% | 96.0 mP | 31% | – | – | – | – | – | – |
| CC(C)=CCCC1(C)C=Cc2c(O)c3c(c(CC=C(C)C)c2O1)OC12C(=CCCC1C(C)(C)O[C@@]2(C/C=C(\C)C(=O)O)C(=O)O)C3=O (stereo partly drawn) [Compound A02, GARCINOLIC ACID] | 2.5% | 3.3% | 3.6% | 7.5% | 18.1% | 22% | 124.0 mP | 11.8% | – | – | – | – | – | – |
| O=C1c2cccc(O)c2C(=O)c2c(O)cccc21 [Compound A03, DANTHRON] | -1.2% | 1.4% | 4.8% | 4.9% | 8.7% | 19.7% | 126.4 mP | 9.62% | – | – | – | – | – | – |
| CCCCCc1c2c(cc(O)c1C(=O)O)OC(=O)c1c(cc(OC)cc1C(=O)CCCC)O2 [Compound A04, LOBARIC ACID] | 1.4% | 2.3% | 2% | 3.2% | 10.2% | 13.7% | 129.2 mP | 7.13% | – | – | – | – | – | – |
| C[n+]1cc2c3c(ccc2c2ccc4cc5c(cc4c21)OCO5)OCO3 [Compound A05, SANGUINARINE SULFATE] | – | – | – | – | – | – | 130.6 mP | 6.61% | -1.4% | -0.2% | 2% | 8.4% | 20.6% | 31.1% |
| CCCCC(CC)CCC(CC(C)C)OS(=O)(=O)O (stereo not drawn) [Compound A06, SODIUM TETRADECYL SULFATE] | -7.3% | -3.8% | -1% | 2.6% | 15.4% | 24.4% | 121.5 mP | 9.56% | – | – | – | – | – | – |
| CN(C)c1ccc(C(=C2C=CC(=[N+](C)C)C=C2)c2ccc(N(C)C)cc2)cc1 [Compound A08, GENTIAN VIOLET] | 1.9% | 3.7% | 5.8% | 6.6% | 21.2% | 22.7% | 123.0 mP | 11.7% | – | – | – | – | – | – |
| COC(=O)CC[C@@H](C)[C@H]1CC[C@H]2[C@@H]3[C@H](O)C[C@@H]4C[C@H](O)CC[C@]4(C)[C@H]3C[C@H](O)[C@]12C [Compound A09, CHOLIC ACID, METHYL ESTER] | 1.6% | 1.5% | 1.7% | 4.2% | 9.3% | 13.2% | 127.0 mP | 9.59% | – | – | – | – | – | – |
| COC(=O)Nc1nc2ccc(Sc3ccccc3)cc2[nH]1 [Compound A10, FENBENDAZOLE] | -3.4% | 2.3% | 0.2% | -0.1% | -0.4% | 8.8% | 128.0 mP | 8.47% | – | – | – | – | – | – |
| O=C1c2c(O)ccc(O)c2C(=O)c2c(NCCNCCO)ccc(NCCNCCO)c21 [Compound A11, MITOXANTRONE HYDROCHLORIDE] | -2.2% | 4.3% | 11.2% | 19.5% | 32.9% | 32.2% | 99.8 mP | 26.3% | – | – | – | – | – | – |
| CC[n+]1c(-c2ccccc2)c2cc(N)ccc2c2ccc(N)cc21 [Compound A12, HOMIDIUM BROMIDE] | – | – | – | – | – | – | 113.8 mP | 15.3% | 3.5% | 5.5% | 7.2% | 12% | 26.1% | 39.2% |
| O=C(O)C1=CC(=C(c2ccc(O)c(C(=O)O)c2)c2ccc(O)c(C(=O)O)c2)C=CC1=O [Compound A14, AURIN TRICARBOXYLIC ACID] | 0.7% | 2% | 3.8% | 4.8% | 8.1% | 8.6% | 129.7 mP | 6.76% | – | – | – | – | – | – |
| CCCc1nc2c(C)cc(-c3nc4ccccc4n3C)cc2n1Cc1ccc(-c2ccccc2C(=O)O)cc1 [Compound A16] | -1.1% | -0.6% | -0.1% | 1.6% | 6.3% | 11.1% | 125.4 mP | 5.2% | – | – | – | – | – | – |
| CCCCCCCCCc1ccc(OCCOCCOCCOCCOCCOCCOCCOCCOCCO)cc1 [Compound A17, NONOXYNOL-9] | – | – | – | – | – | – | 127.2 mP | 9.04% | -0.3% | 6.2% | 5.9% | 5.3% | 12.9% | 11.1% |
| CN1C[C@H](C(=O)N[C@]2(C)O[C@@]3(O)[C@@H]4CCCN4C(=O)[C@H](Cc4ccccc4)N3C2=O)C=C2c3cccc4[nH]cc(c34)C[C@H]21 [Compound A18, ERGOTAMINE TARTRATE] | – | – | – | – | – | – | 122.3 mP | 11% | -0.2% | 0.3% | 3.3% | 5.8% | 15.6% | 25.6% |
